In patent publication US20100158866A1, “PREDICTION OF HCV TREATMENT RESPONSE” (priority 2008, published 2010):

Experiments:
[1] = Phase 2A clinical trial of RO4588161: premature withdrawal for safety reasons; format: in vivo, human
Excerpt: (§1) This was a phase 2A, multi-center, randomized, double-blinded (RO4588161 and ribavirin were double-blinded and Pegasys was open labeled), active-controlled, with a parallel-group study which is ongoing. A screening period (time from the first screening assessment to the first administration of test drug) of 35 days preceded the treatment portion of the trial (FIG. 1). The HCV genotype and HCV RNA titer of each patient was confirmed during the screening period and only treatment-naïve patients with HCV genotype-1 and HCV RNA titer […] were eligible for enrollment.
One hundred and seven male and female patients between 18 and 66 years of age were enrolled into the study. Patients were randomized into four treatment groups: • Group A/Dual 1500 [RO4588161 1500 mg oral, twice daily+Pegasys 180 μg subcutaneous, once weeky] for 4 weeks-21 patients, • Group B/Dual 3000 [RO4588161 3000 mg oral, twice daily+Pegasys 180 μg subcutaneous, once weekly] for 4 weeks-34 patients, • Group C/Triple 1500 [RO4588161 1500 mg oral, twice daily+Pegasys 180 μg subcutaneous, once weekly+ribavirin 1000 mg (<75 kg) or 1200 mg […] oral daily] for 4 weeks-31 patients or • Group D/standard of care (SOC) [Pegasys 180 μg subcutaneous, once weekly+ribavirin 1000 mg (<75 kg) or 1200 mg (≧75 kg) oral daily] for 4 weeks-21 patients […]

[2] = tested on: HCV genotype 1; test: Phase 2A clinical trial of RO4588161 with Pegasys with or without ribavirin: HCV RNA viral load and viral response (Roche COBAS TaqMan HCV Test); format: in vivo, human; settings: for mean change in viral concentrations (HCV RNA) from baseline at week 4: 4 weeks
Excerpt: as §1
One hundred and seven male and female patients between 18 and 66 years of age were enrolled into the study. Patients were randomized into four treatment groups: • Group A/Dual 1500 [RO4588161 1500 mg oral, twice daily+Pegasys 180 μg subcutaneous, once weeky] for 4 weeks-21 patients, • Group B/Dual 3000 [RO4588161 3000 mg oral, twice daily+Pegasys 180 μg subcutaneous, once weekly] for 4 weeks-34 patients, • Group C/Triple 1500 [RO4588161 1500 mg oral, twice daily+Pegasys 180 μg subcutaneous, once weekly+ribavirin 1000 mg (<75 kg) or 1200 mg […] oral daily] for 4 weeks-31 patients or • Group D/standard of care (SOC) [Pegasys 180 μg subcutaneous, once weekly+ribavirin 1000 mg (<75 kg) or 1200 mg (≧75 kg) oral daily] for 4 weeks-21 patients
Patients meeting all eligibility criteria were randomized to receive RO4588161 in combination with Pegasys with or without ribavirin for 4 weeks or to SOC.
All patients who received at least one dose of study medication would continue to receive open label Pegasys 180 μg sc qw and ribavirin 1000 mg (<75 kg) or 1200 mg (≧75 kg) po qd to complete a total treatment period of 48 weeks.
Randomization was stratified by the PK subcohort (sparse PK versus intensive PK) in a 2:3:3:2 ratio into the following treatment groups (Group A/Dual 1500˜20, Group B/Dual 3000˜30, Group C/Triple 1500˜30, Group D/SOC˜20).
All patients were to have a safety follow up visit at week 8, 4 weeks after the last dose of the experimental drug combination. Patients were to have this 4 week safety follow up visit during their treatment with the standard of care therapy. Patients who have completed a full 48-week course of therapy were followed for 24 weeks post treatment completion.
Pharmacodynamic analysis included the assessment of serum viral load, and viral response at individual clinical visits and an assessment of antiviral resistance development with RO4588161 given in combination with Pegasys with or without ribavirin in treatment naïve patients with chronic HCV genotype 1 virus infection. Viral response was defined as the percentage of patients with undetectable HCV RNA as measured by the Roche COBAS TaqMan HCV Test (<15 IU/mL). Pharmacodynamic data were presented by listings, summary statistics (including means, medians, standard errors, confidence intervals for means, ranges, coefficients of variation, proportions of patients with response and confidence intervals for proportions) and plots of means over time.

[3] = tested on: HCV genotype 1; test: Phase II clinical trial of RO5024048 with Pegasys and ribavirin: plasma HCV RNA; format: in vivo, human
Excerpt: Twenty-five (25) patients per Cohort of RO5024048 were enrolled. Twenty (20) patients per cohort received RO5024048 in combination with standard of care (SOC) and five (5) patients per cohort were randomized to receive SOC with a RO5024048 placebo. Patients were screened up to 56 days prior to enrollment. On Day −1, patients visited the clinic for pre-dose assessments. On Day 1, patients received an oral dose of study drug RO5024048 or placebo and Pegasys/ribovarin in the morning with a light meal and at least 240 mL of water.
A majority of dosing occurred on an outpatient basis. Periodically, patients returned to the clinic for study assessments. Early morning on Days 7, 14, 21, and 28, patients were asked to report to the clinic after an overnight fast. Patients received their RO5024048/placebo in combination with Pegasys and Ribovarin with a light meal and 240 mL of water in the morning in the clinic. Patients were followed through Day 56 (28 days after dosing is completed).
After completing four weeks of the combination-dosing regimen followed by at least 4 weeks of SOC dosing (RO5024048 washout), all patients were eligible to receive up to 40 weeks, depending upon genotype, of open label standard of care (SOC) dosing with Pegasys plus ribavirin. Genotype 2 or 3 subjects enrolling in Cohort 4 will receive a total of 24 weeks of Pegasys plus ribovarin. An overview of the study design is outlined in Table 1.

[4] = tested on: HCV; settings: cited from earlier work
[5] = human, in vivo; cited from earlier work

CC(C)C(=O)OC[C@@]1(N=[N+]=[N-])O[C@@H](n2ccc(N)nc2=O)[C@H](OC(=O)C(C)C)[C@@H]1OC(=O)C(C)C [RO4588161, Isobutyric acid (2R,3S,4R,5R)-5-(4-amino-2-oxo-2H-pyrimidin-1-yl)-2-azido-3,4-bis-isobutyryloxy-tetrahydro-furan-2-ylmethyl ester]
patients who prematurely withdrew for safety reasons from the drug ([1]; among the 104 evaluable patients): 43 patients | mean change in viral concentrations (HCV RNA) from baseline at week 4 ([2]; Dual 1500: RO4588161 1500 mg oral twice daily + Pegasys 180 μg sc once weekly): −3.6 log10 IU/mL | difference in mean change in viral concentrations ([2]; Dual 3000 vs Dual 1500, week 4, printed as 'minus 0.9'): 0.9 log10 IU/mL | mean change in viral concentrations (HCV RNA) from baseline at week 4 ([2]; Triple 1500: RO4588161 1500 mg oral twice daily + Pegasys 180 μg sc once weekly + ribavirin 1000/1200 mg oral daily): −5.2 log10 IU/mL | patients achieving RVR4 (undetectable HCV RNA at four weeks of treatment) ([2]; Triple 1500 group (N=31)): 23 out of the 31 | patients achieving sustained virological response (SVR) at 24 weeks post treatment completion ([2]; Triple 1500 group, of the thirteen patients undetectable at two weeks): Eleven | antiviral effect, non-overlapping 95% confidence intervals ([2]; Triple 1500 over Dual 1500 and SOC): superior antiviral effect | difference in mean change in viral concentrations ([2]; Triple 1500 vs Dual 1500, week 4, printed as 'minus 1.6'): 1.6 log10 IU/mL | difference in mean change in viral concentrations ([2]; Triple 1500 vs SOC, week 4, printed as 'minus 2.8'): 2.8 log10 IU/mL | decrease in the mean HCV RNA (IU/mL) from baseline at week 4 ([2]; all RO4588161 containing groups (Dual 1500, Dual 3000, Triple 1500), 4 weeks treatment, treatment-naive HCV genotype-1 patients): ≥ 3.6 log10 | earliest assessment at which declines in HCV RNA were observed, following the first dose ([2]; first assessment): 72 h | plasma viral load following treatment ([2]; treatment with RO4588161, Pegasys and ribavirin): Dose- and time-dependent decreases

CC(C)C(=O)OC[C@H]1O[C@@H](n2ccc(N)nc2=O)[C@](C)(F)[C@@H]1OC(=O)C(C)C [RO5024048, Isobutyric acid (2R,3R,4R,5R)-5-(4-amino-2-oxo-2H-pyrimidin-1-yl)-4-fluoro-3-isobutyryloxy-4-methyl-tetrahydro-furan-2-ylmethyl ester]
whether HCV RNA could be detected at Week 8 ([3]; 1500 mg RO5024048 + Pegasys + ribavirin, patients not undetectable until day 17 (FIG. 4) or day 28 (FIG. 5)): mixed | HCV RNA status on day 56 (Week 8) ([3]; 1500 mg RO5024048 + Pegasys + ribavirin, patients with undetectable HCV RNA at 14 days of treatment (FIG. 3)): all HCV RNA negative | decreases in plasma viral load ([3]; four-week treatment, 1500 mg RO5024048 twice daily with SOC dosing of Pegasys and ribavirin, compared with other dose levels): most notable decreases

NC(=O)c1ncn([C@@H]2O[C@H](CO)[C@@H](O)[C@H]2O)n1 [ribavirin, 1-((2R,3R,4S,5R)-3,4-Dihydroxy-5-hydroxymethyl-tetrahydro-furan-2-yl)-1H-[1,2,4]triazole-3-carboxylic acid amide]
patients in whom serum amino transferase levels are reduced to normal ([4]; monotherapy): 40 % of patients | effect on serum levels of HCV-RNA ([4]; ribavirin monotherapy): does not lower | patients who prematurely withdrew for safety reasons from the drug ([1]; both, human, in vivo, 4 weeks): 5 patients | patients with hemolytic anemia requiring dose reduction or discontinuation of ribavirin therapy [5]: 10-20 % of patients
